According to patent US8193377B2, “(−)-epigallocatechin gallate derivatives for inhibiting proteasome” (The Hong Kong Polytechnic University, priority 2004, dated 2012):

Key:
[1] = biological target: T1, purified rabbit 20s proteasome (Oryctolagus cuniculus, UniProt G1T4Q9); assay: Inhibition of chymotrypsin-like activity of purified 20S proteasome; type: biochemical
T1 construct: purchased Boston Biochem (Cambridge, Mass.)
T1 sequence (G1T4Q9 1-263): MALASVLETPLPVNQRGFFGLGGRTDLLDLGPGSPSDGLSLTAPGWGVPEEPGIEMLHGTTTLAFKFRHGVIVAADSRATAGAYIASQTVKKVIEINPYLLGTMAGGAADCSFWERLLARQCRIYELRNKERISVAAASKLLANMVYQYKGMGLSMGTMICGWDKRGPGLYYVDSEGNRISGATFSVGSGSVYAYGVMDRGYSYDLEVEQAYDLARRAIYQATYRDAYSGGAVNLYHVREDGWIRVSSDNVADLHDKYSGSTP
Method: Measurement of the chyrnotrypsin-like activity of the 20s proteasome was performed by incubating 0.5 μg of purified rabbit 20s proteasome with 40 μM fluorogenic peptide substrate, Suc-Leu-Leu-Val-Tyr-AMC, with or without various concentrations of natural and synthetic tea polyphenols as described previously (Nam S et. al.).
In order to test this hypothesis, proteasome activity was tested both in vitro and in intact Jurkat T cells with either 1 or (−)-EGCG (as a positive control). First, 1 and commercial (−)-EGCG were dissolved in DMSO and their effects on the chymotrypsin-like activity of purified 20S proteasomes were measured. […] In contrast, (−)-EGCG at 10 μM inhibited 80-90% of the proteasomal chymotrypsin-like activity. Therefore, as predicted, 1 outside of a cellular system is not a proteasome inhibitor.
Up to 25 μM of all protected and unprotected compounds were incubated with a purified 20s proteasome and a fluorogenic substrate for chyrnotrypsin activity for 30 min. The half-maximal inhibitory concentration or IC50 was then determined. […] This is consistent with the results above.

VA-13 cells [2] = assay: Nuclear staining (Hoechst) for apoptotic morphology, VA-13; type: cell-based, human; conditions: 25 μM, 24 h
Method: After each drug treatment, both detached and attached VA-13 and WI-38 cells were stained Hoechst 33342 to assess for apoptosis. Briefly, cells were washed 2× in PBS, fixed for 1 h with 70% ethanol at 4° C., washed 3× in PBS, and stained with […] Hoechst for 30 min in the dark at room temperature. Detached cells were plated on a slide and attached cells were visualized on the plate with a fluorescent microscope at 10× or 40× resolution (Zeiss, Germany). Digital Scientific obtained images with AxioVision 4.1 and adjusted using Adobe Photoshop 6.0.
Next, apoptotic nuclear morphology is examined after treatment with natural (−)-EGCG, 2, and 2a (FIG. 12B). […] A comparison among all the protected analogs was then performed using 25 μM for 24 h. […] All of the protected analogs induced apoptosis in transformed (VA-13), but not normal (WI-38) cells (FIGS. 12B and 12C).

VA-13 cells [3] = assay: Immunostaining of apoptotic cells with anti-cleaved PARP-FITC; type: cell-based, human; conditions: 25 μM, 24 h
Method: Immunostaining of apoptotic cells was performed by addition of a FITC-conjugated polyclonal antibody that recognizes cleaved poly(ADP-ribose) polymerase (PARP) and visualized on an Axiovert 2 5 (Zeiss; Thornwood, N.Y.) microscope. Cells were grown to about 80% confluency in 60 mm dishes. VA-13 cells were then treated with VP-16, 2, or 2a (25 μM) for 24 h. Following treatment, both suspension and adhering cells were collected and washed twice in PBS pH 7.4. The cells were washed between all steps listed below and all washes are 1 min duration with PBS. Cells were then fixed in ice-cold 70% ethanol, permeabilized in 0.1% Triton-X-100 and blocked for 30 min in 1% bovine serum albumin (BSA) at room temperature. Incubation with the primary FITC-conjugated-p85/PARP antibody was for 30 min at 4° C. in the dark with mild shaking. Cell suspension was then transferred to glass slides in the presence of Vector Shield mounting medium with DAPI. Images were captured using AxioVision 4.1 and adjusted using Adobe Photoshop 6.0 software. Cell death was quantified by counting the number of apoptotic cells over the total number of cells in the same field. Data are mean of duplicate experiments ±SD.
(§1) It has been shown that proteasome inhibition can induce apoptosis in a wide variety of cancer cells, but not in normal, non-transformed cells (An B et al). Jurkat T cells are treated with 25 μM of each of the selected polyphenols and their protected analogs for 24 h to investigate their abilities to induce apoptotic cell death. […] The unprotected 2 induced much less apoptosis (21%), while 25 μM VP-16, used as a positive control, induced 92% apoptosis (FIGS. 10C and 10D). Counterstain with DAPI, which binds to the minor groove in A-T rich regions of DNA, was decreased drastically in apoptotic cells (FIG. 10C), consistent with DNA fragmentation in late stage apoptosis.

LNCaP cells [4] = assay: Soft agar colony formation assay; type: cell-based, human; conditions: 25 μM once at plating, 21 days
[5] = system: ubiquitinated proteins, Bax, p27, IκBα in Jurkat T cells; assay: Western blot for ubiquitinated proteins and proteasome targets (Bax, p27, IκBα) in Jurkat T cells; type: cell-based, human; conditions: 25 μM
Method: (§2) Whole cells extracts were prepared as described previously (An B, Goldfarb R H, Siman R, Dou Q P. Novel dipeptidyl proteasome inhibitors overcome Bc1-2 protective function and selectively accumulate the cyclin-dependent kinase inhibitor p27 and induce apoptosis in transformed, but not normal, human fibroblasts. Cell Death Differ 1998; 5: 1062-75.). Analysis of Bax, IKBa, p27, PAW, and ubiquitinated protein expression were performed using monoclonal or polyclonal antibodies according to previously reported protocols (An B et. al.).
To determine what effects the synthetic tea analogs had on the proteasome in vivo, Jurkat cells were treated with 25 μM of each synthetic compound for either 4 or 24 h, with (−)-EGCG as a control (FIGS. 9A and 9B). […] This is consistent with the idea that protected analogs are potent inhibitors of the proteasome at an earlier time point and that after 24 h of treatment the ubiquitinated proteins are being depleted by deubiquitinating enzymes. […] The putative ubiquitinated IκBα band is still found in cells treated with 2a, 3a, and 4a (FIG. 9B, Lanes 9, 5, 7). The presumed ubiquinated IκBα band is now absent in the 24 h treatment, possibly due to deubiquitination (FIG. 9B). Actin was used as a loading control in this experiment.
The pro-apoptotic protein Bax and the cyclin-dependent kinase inhibitor p27 are natural proteasome targets. If the peracetate-protected polyphenols inhibit the intact proteasome activity, we would expect accumulation of Bax and p27 in these cells. To test this idea, Jurkat T cells were treated with both protected and unprotected compounds and lysates were analyzed by Western blot using specific antibodies to Bax and p27 (FIG. 15). After 4 h of treatment, the peracetate-protected analogs 24* and 19*, but not their unprotected analogs, were able to increase accumulation of both Bax (by 3- and 2.5-fold, respectively) and p27 (6- and 11-fold, respectively) (FIG. 15A). After 24 h treatment, Bax levels were increased in cells treated with all of the peracetate-protected compounds (13-, 12-, 40- and 36-fold, respectively, by 24*, 19*, 21* and 23*).

LNCaP cells [6] = assay: Apoptotic morphological changes, phase contrast; type: cell-based, human; conditions: 25 μM, 24 h
MCF-7 cells = assay: MTT assay; type: cell-based, human; conditions: 24 h
Method: MTT was used to determine effects of polyphenols on overall proliferation of tumor cells. Human breast MCF-7 cells were plated in a 96 well plate and grown to 70-80% confluency, followed by addition of analogs for 24 h. MTT (1 mg/ml) in PBS was then added to wells and incubated at 37° C. for 4 hours to allow for complete cleavage of the tetrazolium salt by metabolically active cells. Next, the MTT was removed and 100 μl of DMSO was added and colorimetric analysis performed using a multilabel plate reader at 560 nm (Victor^3; Perkin Elmer). Absorbance values plotted are the mean from triplicate experiments.
Treated breast cancer (MCF-7) cells were then treated with 5 or 25 μM of peracetate-protected analogs for 24 h, followed by MTT analysis to determine their effects on cell proliferation. Compound 1 at 25 μM inhibited cellular proliferation by 40% (FIG. 11A).

Jurkat T cells [7] = assay: Western blot for PARP cleavage in Jurkat T cells; type: cell-based, human; conditions: 25 μM, 24 h
Method: as §2, §1
To determine if the cell death observed (FIG. 16) was due to the induction of apoptosis, a similar experiment was performed in Jurkat T cells, followed by measurement of caspase-3 activation and PARP cleavage.

Jurkat T cells [8] = assay: Trypan blue cell death assay in Jurkat T cells; type: cell-based, human; conditions: 24 h
[9] = Stability test in RPMI 1640 culture medium, HPLC; conditions: 37° C.
Method: The stability of 1 with (−)-EGCG in a culture medium (RMPI) is compared, which mimics the body fluid with a pH value around 8. (−)-EGCG or 1 at 0.1 mM was incubated in 1 mL RMPI at 37° C. at indicated times. At different time points, the medium was analyzed by HPLC for the amount of tested compound remaining.

[10] = biological target: T2, proteasomal chymotrypsin-like activity in Jurkat T cells (Homo sapiens, UniProt P28074); assay: Proteasomal chymotrypsin-like activity in intact Jurkat T cells / their lysates; type: cell-based; conditions: 25 μM, 24 h, Jurkat T
T2 construct: measurement of the proteasomal chymotrypsin-like activity in the prepared lysates; endogenous in cells; host or cells: Jurkat T cells (human leukemia)
T2 sequence (P28074 60-263): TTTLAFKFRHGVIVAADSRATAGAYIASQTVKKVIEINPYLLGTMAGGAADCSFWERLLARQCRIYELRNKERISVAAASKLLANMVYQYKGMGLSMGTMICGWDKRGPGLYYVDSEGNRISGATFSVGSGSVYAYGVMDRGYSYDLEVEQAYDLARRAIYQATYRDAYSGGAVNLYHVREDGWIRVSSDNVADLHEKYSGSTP
Method: VA-13 or WI-38 cells were grown in 24 well plates (2 ml/well) to 70-80% confluency, followed by 24 h treatment with […] (−)-EGCG, 2, or 2a. […] Suc-Leu-Leu-Val-Tyr-AMC substrate was then added for 2.5 h at 37° C. and the chyrnotrypsin-like activity was measured as described above. Alternatively, cells were treated with each compound at 25 μM for 4 or 24 h, and harvested and lysed. Suc-Leu-Leu-Val-Tyr-AMC (40 μM) was then incubated with the prepared cell lysates for 2.5 h and the chymotrypsin-like activity was measured as described above.
If 1 converts to (−)-EGCG inside the cells, proteasome inhibition in vivo should be detected. To examine this possibility, human Jurkat cells was treated with 25 μM of 1 or (−)-EGCG for 12 or 24 h, followed by measurement of proteasome activity by using a chymotrypsin-like specific fluorogenic substrate in intact cells (FIG. 6a) or Western blot for ubiquinated proteins (FIG. 6b). […] To analyze the intracellular level of polyubiquitinated proteins, cells were lysed after 12 hours incubation and subjected to Western blotting. […] It is possible that the amount of EGCG generated from 1, and thus its biological activity inside the cells depends on a combination of factors: the relative permeability of 1 into the cells, the amount of esterase enzymes and the amount of anti-oxidants that may be present in the cells at any time.
To determine whether the unprotected and protected polyphenol analogs could inhibit the proteasomal activity in intact cells, leukemia Jurkat T cells were treated with each compound at 25 μM for 4 and 24 h, followed by collection of cell pellets and measurement of the proteasomal chymotrypsin-like activity in the prepared lysates.

[11] = system: phosphorylated Akt (p-Akt); assay: Western blot for phosphorylated Akt in Jurkat T cells; type: cell-based, human; conditions: 25 μM, 24 h
Method: (−)-EGCG and 1 were incubated with Jurkat T cells for 24 h at 5, 10 and 25 μM, followed by Western blot analysis using a specific antibody to phosphorylated Akt (FIG. 7). […] Actin was used as a loading control.

| Structure (SMILES) | IC50 ([1]; up to 25 μM, 30 min incubation, read-out: IC50) [µM] | apoptotic nuclear morphology (VA-13 cells [2]) | apoptotic cells (p85 cleaved PARP) (VA-13 cells [3]) [%] | colony formation in soft agar (LNCaP cells [4]) | accumulation of p27 ([5]; 24 h) | time course of ubiquitinated protein accumulation ([5]; up to 8 h) | apoptotic morphological changes (LNCaP cells [6]) | inhibition of cellular proliferation (MCF-7 cells; 5 μM) [%] | inhibition of cellular proliferation (MCF-7 cells; 25 μM) [%] | apoptosis-specific PARP cleavage (Jurkat T cells [7]) | cell death (trypan blue) (Jurkat T cells [8]; 25 μM) [%] | time after which compound disappeared completely ([9]; 0.1 mM in RPMI, pH around 8) [h] | stability relative to (−)-EGCG ([9]; RPMI culture medium) [times] | inhibition of proteasome activity in intact cells [10] [%] | inhibition of proteasomal chymotrypsin-like activity ([1]; 10 μM, purified 20S proteasome) | reduction of p-Akt level (densitometry) [11] [%] | level of ubiquitinated proteins ([5]; 12 h) | cell death (Jurkat T cells [8]; 10 μM) |
| --- | --- | --- | --- | --- | --- | --- | --- | --- | --- | --- | --- | --- | --- | --- | --- | --- | --- | --- |
| O=C(O[C@@H]1Cc2c(O)cc(O)cc2O[C@H]1c1cc(O)c(O)c(O)c1)c1cccc(O)c1 (relative stereo) [Compound 2, (2S*,3R*)-trans-5,7-Bis(hydroxy)-2-[3,4,5-tris(hydroxy)phenyl]chroman-3-yl 3-(hydroxy)benzoate] | ~9.9 | little or no apoptosis | 21 |  |  |  |  |  |  |  |  |  |  |  |  |  |  |  |
| CC(=O)Oc1cc(OC(C)=O)cc(C(=O)O[C@@H]2Cc3c(OC(C)=O)cc(OC(C)=O)cc3O[C@H]2c2cc(OC(C)=O)c(OC(C)=O)c(OC(C)=O)c2)c1 (relative stereo) [Compound 4a, (2S*,3R*)-trans-5,7-Bis(acetyloxy)-2-[3,4,5-tris(acetyloxy)phenyl]chroman-3-yl 3,5-bis(acetyloxy)benzoate] |  |  |  | most potent inhibitors of colony formation | Accumulation of p27 | as early as 2 h and lasting up to 8 h | dramatic round-up, detachment, and cellular fragmentation | 50 | 70 | induced apoptosis-specific PARP cleavage | 83 |  |  |  |  |  |  |  |
| CC(=O)Oc1cc(OC(C)=O)c2c(c1)O[C@H](c1cc(OC(C)=O)c(OC(C)=O)c(OC(C)=O)c1)[C@H](OC(=O)c1cc(OC(C)=O)c(OC(C)=O)c(OC(C)=O)c1)C2 [Compound 1, peracetate (−)-EGCG] |  |  |  |  |  |  | mild morphological changes |  | 40 |  |  | 2 | 6 | 42 | completely inactive | 73 | comparable levels of ubiquitinated proteins to that of natural (−)-EGCG | up to 15% |
